Laboratory results: publication PMC8330100, “Similarities and differences in the localization, trafficking, and function of P-glycoprotein in MDR1-EGFP-transduced rat versus human brain capillary endothelial cell lines” (Fluids and Barriers of the CNS, 2021)

Molecular target: T1, Pgp in RBE4-MDR1-EGFP cells (Homo sapiens, UniProt P08183)
T1 construct: expressed in transfected cells; host or cells: RBE4 (rat BCEC line), lentiviral transduction, doxycycline-inducible
Experiment: Rhodamine 123 uptake/accumulation assay, RBE4-MDR1-EGFP cells
Assay type: cell-based, rat
Conditions: RBE4-MDR1-EGFP in the presence of doxycycline; tariquidar 0.5 µM
Experimental: Piet Borst (The Netherlands Cancer Institute, Amsterdam, The Netherlands) as template. The linker sequence in the vector fusing EGFP and MDR1 consists of 36 bp ([…]). hCMEC/D3-WT, RBE4-WT, and hCMEC/D3-MDR1-EGFP cell lines were cultivated as previously described. The same culture conditions were used for the newly prepared RBE4-MDR1-EGFP cell line. As described previously, hydrocortisone (1.4 µM) was added to the culture medium to enhance the expression and functionality of Pgp and transendothelial resistance. All endothelial cell lines were grown on rat-tail collagen I (60 µg/mL, Gibco) coated 100 mm cultures dishes or permeable membrane supports at 37 °C and 5% CO2. Pgp-EGFP protein expression in MDR1-EGFP transduced cells was induced by cell cultivation in medium containing […] doxycycline. Expression of Pgp-EGFP was regularly verified by observing the cells with an inverted fluorescence microscope. Doxycycline supplementation of the medium was maintained during the whole culturing period of Pgp-EGFP expressing cells. For experiments, hCMEC/D3 and RBE4 cells were seeded in a density of 50,000 cells/cm^2. Immortalized MDR1 transfected porcine kidney LLC-PK1 (LLC-MDR1) cells, which were used as a reference standard for vectorial transport experiments, were kindly provided by Prof. Piet Borst. […]

## COC(=O)c1ccccc1-c1c2ccc(=N)cc-2oc2cc(N)ccc12 [Rho123, rhodamine 123]
  increase of Rho123 efflux (accumulation in absence vs presence of tariquidar): ~ 7 fold
